Laboratory results taken from US12461089B2, “Olfactory receptor involved in the perception of musk fragrance and the use thereof” (ChemoSensoryX Biosciences SA, priority 2017, dated 2025).
Where two headings read alike, the source gives them in different places.

Columns and labels:
Assay type in all cases: cell-based
[1] = biological target: T1, OR5A2_variant 1 (Homo sapiens, UniProt Q8NGI9); experiment: Luciferase reporter concentration-response analysis on OR5A2_variant 1
T1 construct: expressed in transfected cells; host or cells: HEK293T-RTP1A1/RTP2
T1 sequence (Q8NGI9 1-324): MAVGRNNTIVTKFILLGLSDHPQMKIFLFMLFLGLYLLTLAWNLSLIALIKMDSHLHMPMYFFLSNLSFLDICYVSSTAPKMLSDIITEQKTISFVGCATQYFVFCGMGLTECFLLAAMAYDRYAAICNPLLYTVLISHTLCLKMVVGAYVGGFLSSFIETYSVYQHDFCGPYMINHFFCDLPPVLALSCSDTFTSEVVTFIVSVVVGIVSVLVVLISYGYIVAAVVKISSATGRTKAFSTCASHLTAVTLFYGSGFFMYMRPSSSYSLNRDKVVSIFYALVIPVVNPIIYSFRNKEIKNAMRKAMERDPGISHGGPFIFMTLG
Protocol: (§1) HEK293T-RTP1A1/RTP2 cells were maintained in minimal essential medium (EMEM, Lonza) containing 10% fetal bovine serum (M10). These cells were generated by transfecting HEK293T with an expression vector containing the sequences of the chaperone proteins RTP1A1 and RTP2 and a resistance gene to puromycin, using Lipofectamine 2000.
(§2) Odorant molecules were diluted at a concentration of 1 mole/liter (M) into dimethyl sulfoxide (DMSO) to generate stock solutions.
(§3) For concentration-response analysis, serial dilutions of the tested molecules were prepared from stock solutions in EMEM plated into 96-well plates.
(§4) For the initial deorphanisation screening and dose-response analysis, a Luciferase-based gene reporter assay (Promega, Leiden, The Nederlands) was used. Briefly, cells were platted on Poly-D-lysine-coated 96-well and transfected with a plasmid containing the CRE-luciferase and a plasmid containing the olfactory receptor. Sixteen hours after transfection, the culture medium was replaced by serum-free EMEM containing the tested compounds at a determined concentration. After four hours of incubation at 37° C. degree, cells were lysed and processed for luminescence measurement. Luminescene emission was recorded. Results were expressed as luciferase activity (Relative […] Unit (RLU)) or as percentage of the response induced by 10 μM of the adenylate cyclase activator Forskolin. An empty plasmid is used as negative control.
(§5) 35 musk compounds from the four structurally different chemical groups previously described were tested in concentration-response analyses (Table 2). In each experiment, an empty vector was used as negative control (pEFIBRHO). […] Full results including the calculated EC50 are given in Table 2; “non active” represent negative experiments, no activation after testing.

[2] = biological target: T2, OR5AN1 (Homo sapiens, UniProt Q8NGI8, E89G); experiment: Luciferase reporter concentration-response analysis on OR5AN1; conditions: concentration-response analysis, luciferase reporter, values given as negative (log) numbers, Non Active = no activation after testing; for EC50: read-out: calculated EC50, OR5AN1 (converted)
T2 construct: expressed in transfected cells; host or cells: HEK293T-RTP1A1/RTP2
T2 sequence (Q8NGI8 1-311 E89G): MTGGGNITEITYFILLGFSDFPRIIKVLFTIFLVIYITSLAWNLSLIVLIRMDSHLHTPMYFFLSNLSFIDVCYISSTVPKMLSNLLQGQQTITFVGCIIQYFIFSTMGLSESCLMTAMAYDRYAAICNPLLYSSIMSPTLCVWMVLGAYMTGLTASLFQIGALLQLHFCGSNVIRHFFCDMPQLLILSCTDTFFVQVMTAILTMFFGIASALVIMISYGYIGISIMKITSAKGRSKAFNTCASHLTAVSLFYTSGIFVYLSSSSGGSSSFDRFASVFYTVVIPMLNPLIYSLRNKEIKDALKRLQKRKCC
Protocol: as §1, with “2000. The recombinant cell population, used in these experiments, was selected by adding 10 μg/ml of puromycin into the culture medium and subsequently subcloned (WO 2014/191047 A1).” for “2000.”
as §2, §3, §4
In these analyses we also included ORs previously described as musk-specific receptors OR5AN1 (SEQ ID n° 7) (WO 2015/020158 A1, Shirasu et al. 2014 Neuron 81, 165-78, Sato-Akuhara N et al. 2016 J Neurosci. 36(16), 4482-91) and OR11A1 (SEQ ID n° 8) (WO 2016/201152 A1). […] Therefore, OR5A1 was included in the analyses. 35 musk compounds from the four structurally different chemical groups previously described were tested in concentration-response analyses (Table 2). In each experiment, an empty vector was used as negative control (pEFIBRHO). […] Full results including the calculated EC50 are given in Table 2; “non active” represent negative experiments, no activation after testing. […]

[3] = biological target: T3, OR11A1 (Homo sapiens, UniProt Q9GZK7); experiment: Luciferase reporter concentration-response analysis on OR11A1; conditions: concentration-response analysis, luciferase reporter; values given as negative (log) numbers; Non Active = no activation after testing; read-out: calculated EC50, OR11A1 (converted)
T3 construct: expressed in transfected cells; host or cells: HEK293T-RTP1A1/RTP2
T3 sequence (Q9GZK7 1-315): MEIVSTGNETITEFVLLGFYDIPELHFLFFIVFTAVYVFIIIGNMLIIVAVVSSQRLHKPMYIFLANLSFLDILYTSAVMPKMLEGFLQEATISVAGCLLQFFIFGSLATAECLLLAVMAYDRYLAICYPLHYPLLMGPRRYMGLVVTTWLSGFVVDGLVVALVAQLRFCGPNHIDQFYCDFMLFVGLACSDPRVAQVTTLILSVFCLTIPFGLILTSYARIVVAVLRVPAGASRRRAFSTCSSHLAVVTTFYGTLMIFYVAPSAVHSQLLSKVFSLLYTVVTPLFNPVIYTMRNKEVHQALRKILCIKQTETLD
Protocol: as §1, §2, §3, §4, §5
These compounds were tested in concentration-response analysis in luciferase assays, as described previously. In each experiment, an empty vector was used as negative control (pEFIBRHO).

[4] = concentration-response analysis, luciferase reporter, values given as negative (log) numbers, read-out: calculated EC50, OR5A2 (converted)
[5] = concentration-response analysis, luciferase reporter, values given as negative (log) numbers

Row | Compound | EC50 [2] [µM] | calculated EC50, OR5A2 [1, 5] | EC50 [1, 4] [µM] | other results
1 | CC(=O)c1cc2c(cc1C)C(C)(C)C(C)CC2(C)C (centres unmarked) [Tonalide ®] | – | – | 0.759 | EC50 [3]: 18.2 µM
2 | CC(=O)c1cc(C(C)(C)C)cc2c1CCC2(C)C [crysolide] | 120 | – | 22.4 | –
3 | C=C(C)C1CCC(C)=C1CC(C)(C)COC(=O)CC (centres unmarked) [cyclopentenyl propionate musk] | – | – | – | EC50 [1]: 28.2 µM
4 | CC(=O)c1cc2c(cc1C)C(C)(C)C(C)C2C(C)C (centres unmarked) [traseolide] | – | – | 1.95 | EC50 [3]: 7.08 µM
5 | Cyclopenta- decanone | – | – | – | calculated EC50, OR5AN1 [2]: −4.95
6 | Helvetolide | – | −3.86 | – | –
7 | Isoambrettolide | – | −4.72 | – | –
8 | muscone | – | −5.25 | – | calculated EC50, OR5AN1 [2]: −5.37

Second part, led by results:

Row | EC50 [2] [µM] | calculated EC50, OR5A2 [1, 5] | Compound | EC50 [1, 4] [µM] | other results
9 | 87.1 | – | O=C1CCCCCCCCCCCCCCO1 [Thibetolide = Exaltolide] | 43.7 | –
10 | 309 | – | CC1CC(C)(C)C2=C(CC3(C)OC3C2)C1(C)C (centres unmarked) [malaxone] | – | EC50 [1]: 29.5 µM
11 | 417 | – | CC1C/C=C\CCCCCCCCC(=O)OCC1 (centres unmarked) [nirvanolide] | – | EC50 [1]: 19.5 µM
12 | – | −5.17 | ω-6-Hexadecen- lactone | – | calculated EC50, OR5AN1 [2]: −4.68
